Measurements as given in patent US12390470B2, “1-methylxanthine-based bioactive composition and method of use thereof” (Ingenious Ingredients, LP, priority 2021, dated 2025).
Like-named read-outs stand apart in the source and are kept apart here.

Columns and labels:
kidneys of Wistar rats = details: cited from earlier work
participants [1] = assay: Respiratory quotient, placebo-controlled crossover; format: in vivo, human
Experimental: All supplements were orally ingested with 8 fluid ounces of cold tap water. The order of administration for all interventions was randomized using a random allocation software to ensure randomization and to avoid order effects. After ingestion, participants completed all assessments in an identical fashion 30, 60, 90, 120, and 180 minutes after ingestion of their assigned supplement. All study visits took place between 0600-1000 hours. At least 72 hours of rest will take place between each condition.
The lower the RQ, the more fat that is being oxidized for body energy needs. The closer to 1.0 the more carbohydrate is being burned for energy needs. If numbers are lower more fat is being oxidized.

participants [2] = assay: Resting heart rate, crossover vs caffeine; format: in vivo, human
Text: (§1) All supplements were orally ingested with 8 fluid ounces of cold tap water.

participants [3] = assay: Systolic blood pressure, crossover vs caffeine; format: in vivo, human
Text: as §1

participants [4] = assay: Diastolic blood pressure, crossover vs caffeine; format: in vivo, human
Experimental: All supplements were orally ingested with 8 fluid ounces of cold tap water. Resting Heart Rate, Systolic and Diastolic Blood Pressure was measured at baseline, 30, 60, 90, 120 and 180 minutes after ingestion.

participants [5] = assay: Anxiety by Visual Analog Scale; format: in vivo, human
Experimental: All supplements were orally ingested with 8 fluid ounces of cold tap water. Anxiety was measured by Visual Analog Scale (VAS) at baseline, 30, 60, 90, 120 and 180 minutes after ingestion.

[6] = Person one, time 0, 200 mg oral
[7] = Person two, time 0, 200 mg oral

Cn1c(=O)[nH]c(=O)c2[nH]cnc21 [3-methylxanthine]
serum urea (kidneys of Wistar rats; 100 mg kg^−1, after 16 days): Elevated values of serum urea were found | Tubular necrosis (kidneys of Wistar rats; 100 mg kg^−1 per day oral, after 16 days): Tubular necrosis was noticed | serum urea (kidneys of Wistar rats; 200 mg kg^−1, after 1 day): Elevated values of serum urea were found | serum creatinine (kidneys of Wistar rats; 200 mg kg^−1, after 8 days): Elevated values of serum creatinine were detected | Tubular necrosis (kidneys of Wistar rats; 200 mg kg^−1 per day oral, after 8 days): Tubular necrosis was noticed | overall renal outcome (kidneys of Wistar rats; 50-200 mg per kg per day, 1-16 days): dose- and time-related renal failure

Cn1c(=O)c2c(ncn2C)n(C)c1=O [caffeine, reference compound]
Respiratory Quotient MEAN (30-180) (participants [1]; Average): 0.701 | Respiratory Quotient MEAN (30-180) (participants [1]; Person one): 0.704 | Respiratory Quotient (participants [1]; Person one, 30 min after ingestion): 0.70 | Respiratory Quotient (participants [1]; Person one, 60 min): 0.65 | Respiratory Quotient (participants [1]; Person one, 90 min): 0.70 | Respiratory Quotient (participants [1]; Person one, 120 min): 0.74 | Respiratory Quotient (participants [1]; Person one, 180 min): 0.73 | Respiratory Quotient (participants [1]; [6]): 0.68 | Respiratory Quotient MEAN (30-180) (participants [1]; Person two): 0.698 | Respiratory Quotient (participants [1]; Person two, 30 min): 0.70 | Respiratory Quotient (participants [1]; Person two, 60 min): 0.71 | Respiratory Quotient (participants [1]; Person two, 90 min): 0.71 | Respiratory Quotient (participants [1]; Person two, 120 min): 0.71 | Respiratory Quotient (participants [1]; Person two, 180 min): 0.66 | Respiratory Quotient (participants [1]; [7]): 0.76 | Resting Heart Rate Mean Δ from 0 (participants [2]; Average, listed as CA): 10% | Resting Heart Rate Mean Δ from 0 (participants [2]; Person one): +6.2 bpm | Resting Heart Rate (participants [2]; Person one, 30 min): 64 bpm | Resting Heart Rate (participants [2]; Person one, 60 min): 56 bpm | Resting Heart Rate (participants [2]; Person one, 90 min): 51 bpm | Resting Heart Rate (participants [2]; Person one, 120 min): 61 bpm | Resting Heart Rate (participants [2]; Person one, 180 min): 44 bpm | Resting Heart Rate (participants [2]; [6]): 49 bpm | Resting Heart Rate Mean Δ from 0 (participants [2]; Person two): +4.6 bpm | Resting Heart Rate (participants [2]; Person two, 30 min): 65 bpm | Resting Heart Rate (participants [2]; Person two, 60 min): 62 bpm | Resting Heart Rate (participants [2]; Person two, 90 min): 62 bpm | Resting Heart Rate (participants [2]; Person two, 120 min): 64 bpm | Resting Heart Rate (participants [2]; Person two, 180 min): 69 bpm | Resting Heart Rate (participants [2]; [7]): 59 bpm | Systolic Blood Pressure MEAN (30-180) (participants [3]; Person one): 130.0 mm Hg | Systolic Blood Pressure MEAN (30-180) (participants [3]; Person two): 119.6 mm Hg | Diastolic Blood Pressure MEAN (30-180) (participants [4]; Average): 80.2 mm Hg | Diastolic Blood Pressure Mean Δ from 0 (participants [4]; Average, listed as CA): 20.3% | Diastolic Blood Pressure MEAN (30-180) (participants [4]; Person one): 78.6 mm Hg | Diastolic Blood Pressure Mean Δ from 0 (participants [4]; Person one): +18.6 mm Hg | Diastolic Blood Pressure (participants [4]; Person one, 30 min): 77 mm Hg | Diastolic Blood Pressure (participants [4]; Person one, 60 min): 80 mm Hg | Diastolic Blood Pressure (participants [4]; Person one, 90 min): 83 mm Hg | Diastolic Blood Pressure (participants [4]; Person one, 120 min): 77 mm Hg | Diastolic Blood Pressure (participants [4]; Person one, 180 min): 76 mm Hg | Diastolic Blood Pressure (participants [4]; [6]): 60 mm Hg | Diastolic Blood Pressure MEAN (30-180) (participants [4]; Person two): 81.8 mm Hg | Diastolic Blood Pressure Mean Δ from 0 (participants [4]; Person two): +8.8 mm Hg | Diastolic Blood Pressure (participants [4]; Person two, 30 min): 77 mm Hg | Diastolic Blood Pressure (participants [4]; Person two, 60 min): 96 mm Hg | Diastolic Blood Pressure (participants [4]; Person two, 90 min): 84 mm Hg | Diastolic Blood Pressure (participants [4]; Person two, 120 min): 75 mm Hg | Diastolic Blood Pressure (participants [4]; Person two, 180 min): 77 mm Hg | Diastolic Blood Pressure (participants [4]; [7]): 73 mm Hg | Anxiety (VAS) MEAN (30-180) (participants [5]; Average): 74.4 | Anxiety (VAS) Mean Δ from 0 (participants [5]; Average, listed as CA): 65% | Anxiety (VAS) MEAN (30-180) (participants [5]; Person one): 74.6 | Anxiety (VAS) Mean Δ from 0 (participants [5]; Person one): +44.6 | Anxiety (Visual Analog Scale) (participants [5]; Person one, 30 min): 61 | Anxiety (Visual Analog Scale) (participants [5]; Person one, 60 min): 80 | Anxiety (Visual Analog Scale) (participants [5]; Person one, 90 min): 80 | Anxiety (Visual Analog Scale) (participants [5]; Person one, 120 min): 71 | Anxiety (Visual Analog Scale) (participants [5]; Person one, 180 min): 81 | Anxiety (Visual Analog Scale) (participants [5]; [6]): 30 | Anxiety (VAS) MEAN (30-180) (participants [5]; Person two): 74.2 | Anxiety (VAS) Mean Δ from 0 (participants [5]; Person two): +14.2 | Anxiety (Visual Analog Scale) (participants [5]; Person two, 30 min): 70 | Anxiety (Visual Analog Scale) (participants [5]; Person two, 60 min): 75 | Anxiety (Visual Analog Scale) (participants [5]; Person two, 90 min): 76 | Anxiety (Visual Analog Scale) (participants [5]; Person two, 120 min): 75 | Anxiety (Visual Analog Scale) (participants [5]; Person two, 180 min): 75 | Anxiety (Visual Analog Scale) (participants [5]; [7]): 60
